# Source: patent US6818638B2, “Melvinolin derivatives” (Novartis AG, priority 1999, dated 2004)
# Key:
# [1] = test system: Peripheral blood mononuclear cells (PBMC); assay: Human Mixed Lymphocyte Reaction (MLR); format: cell-based; details: 2-way reactions, six days, 3H-thymidine, read-out: IC50, 50% inhibition of cell proliferation in MLR
# Procedure: Peripheral blood mononuclear cells (PBMC) are isolated from human buffy coats. In each experiment, PBMC from three different donors (A, B, and C) are set up in three individual 2-way reactions (A-B, A-C, B-C). Cells are cocultured for six days and proliferation is determined by pulsing the cells with ^3H-thymidine. The concentration of compounds of formula I which results in 50% inhibition of cell proliferation (IC50) is calculated.
# [2] = test system: thioglycollate induced neutrophil migration; assay: Murine Thioglycollate Induced Peritonitis; format: in vivo, mice; details: Mus musculus, Neutrophil, po; p.o.; neutrophils in peritoneal lavage after 4 hours; read-out: ED50 in test Bi)
# [3] = test system: oxazolone-induced allergic contact dermatitis; assay: Allergic Contact Dermatitis (ACD), oxazolone-sensitized mice; format: in vivo
# Procedure: Groups of oxazolone-sensitized mice are challenged with 10 μl of 0.2 or 2.0% oxazolone on the inner surface of the right to eliciate ACD. The low concentration of oxazolone is used for testing compounds on systemic activity whereas the high concentration is applied for topical testing. The unchallenged left ears serve as normal controls and dermatitis is evaluated from the individual differences in pinnal weight, which is taken as a measure of increase in inflammatory swelling 24 h after the challenge. Dermatitis is evaluated in test- and for comparison in control groups. The test groups are treated with the test compounds either orally (twice, 2 h and immediately before challenge), subcutaneously (immediately before challenge) or topically (30 min after challenge at the site of elicitation of the ACD); the controls are treated similarly with the vehicles alone. For oral and subcutaneous administration the compounds are administered in an oil in water emulsion, for topical administration the compounds are prepared in a mixture of ethanol, acetone and dimethylacetamide. The data of the test- and the vehicle-treated control groups are statistically analysed by ANOVA followed by Dunnet T-test (normal distribution or data) or by H and U-test, respectively. […]
# [4] = biological target: T1, human LFA-1 / human ICAM-1 (Homo sapiens, UniProt P20701); assay: Cell free assay: binding of soluble human ICAM-1 to immobilized human LFA-1; details: cell free assay Ai); read-out: IC50, inhibition of adhesion of LFA-1 to ICAM-1
# T1 construct: endogenous in cells; ICAM-1-Cκ: made in house in the baculovirus system
# T1 sequence (P20701 26-1170): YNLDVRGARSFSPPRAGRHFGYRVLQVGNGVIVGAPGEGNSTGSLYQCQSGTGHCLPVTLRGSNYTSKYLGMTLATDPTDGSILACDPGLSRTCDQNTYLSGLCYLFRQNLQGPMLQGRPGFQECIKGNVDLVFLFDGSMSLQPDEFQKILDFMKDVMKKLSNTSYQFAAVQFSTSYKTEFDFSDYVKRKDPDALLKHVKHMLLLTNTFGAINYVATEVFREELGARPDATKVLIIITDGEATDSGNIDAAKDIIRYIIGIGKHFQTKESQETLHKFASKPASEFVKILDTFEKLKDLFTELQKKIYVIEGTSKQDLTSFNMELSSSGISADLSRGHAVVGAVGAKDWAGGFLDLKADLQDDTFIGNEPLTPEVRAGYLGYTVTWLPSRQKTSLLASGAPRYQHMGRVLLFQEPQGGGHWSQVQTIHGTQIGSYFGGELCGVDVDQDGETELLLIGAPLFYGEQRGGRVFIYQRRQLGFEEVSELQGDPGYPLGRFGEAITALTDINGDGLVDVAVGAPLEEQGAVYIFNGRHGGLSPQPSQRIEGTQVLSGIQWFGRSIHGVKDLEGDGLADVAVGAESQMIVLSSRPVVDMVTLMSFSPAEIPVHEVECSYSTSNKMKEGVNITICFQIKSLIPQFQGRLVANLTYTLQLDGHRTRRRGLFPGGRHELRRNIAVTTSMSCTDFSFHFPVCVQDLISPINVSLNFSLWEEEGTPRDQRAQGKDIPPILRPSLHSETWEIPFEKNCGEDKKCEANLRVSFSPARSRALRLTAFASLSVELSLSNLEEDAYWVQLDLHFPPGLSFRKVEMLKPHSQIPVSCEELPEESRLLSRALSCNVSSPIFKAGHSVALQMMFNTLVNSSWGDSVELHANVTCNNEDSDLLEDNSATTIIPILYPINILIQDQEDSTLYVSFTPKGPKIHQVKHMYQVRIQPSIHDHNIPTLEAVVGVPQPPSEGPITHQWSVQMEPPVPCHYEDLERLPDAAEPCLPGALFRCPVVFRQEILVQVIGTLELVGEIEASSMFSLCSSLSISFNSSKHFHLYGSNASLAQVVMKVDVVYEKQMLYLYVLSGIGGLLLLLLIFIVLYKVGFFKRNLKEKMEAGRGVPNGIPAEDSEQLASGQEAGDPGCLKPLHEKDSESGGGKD
# T1 sequence (P05107 23-769 partner): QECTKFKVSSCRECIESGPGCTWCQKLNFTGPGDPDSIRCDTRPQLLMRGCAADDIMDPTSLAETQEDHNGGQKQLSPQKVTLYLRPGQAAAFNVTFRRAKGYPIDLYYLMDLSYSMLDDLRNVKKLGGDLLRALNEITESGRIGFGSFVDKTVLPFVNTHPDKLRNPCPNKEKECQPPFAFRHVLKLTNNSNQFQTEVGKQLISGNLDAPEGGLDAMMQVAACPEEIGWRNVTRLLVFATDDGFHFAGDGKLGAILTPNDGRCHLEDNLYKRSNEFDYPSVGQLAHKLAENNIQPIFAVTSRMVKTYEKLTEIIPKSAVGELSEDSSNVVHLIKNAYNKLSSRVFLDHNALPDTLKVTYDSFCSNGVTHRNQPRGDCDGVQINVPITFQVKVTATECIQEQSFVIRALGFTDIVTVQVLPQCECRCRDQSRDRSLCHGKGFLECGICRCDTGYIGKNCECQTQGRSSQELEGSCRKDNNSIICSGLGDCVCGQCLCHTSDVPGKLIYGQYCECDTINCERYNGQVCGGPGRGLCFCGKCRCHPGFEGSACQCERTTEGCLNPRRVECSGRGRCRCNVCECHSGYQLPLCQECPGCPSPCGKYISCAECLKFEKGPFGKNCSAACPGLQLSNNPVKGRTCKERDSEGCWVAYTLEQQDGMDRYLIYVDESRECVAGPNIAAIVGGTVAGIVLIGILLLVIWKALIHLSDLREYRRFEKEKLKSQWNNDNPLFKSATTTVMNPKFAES
# Procedure: The assay measures the binding of soluble human ICAM-1 to Immobilized human LFA-1 is purified from JY cells, a human lymphoblastoid B cell-line, by immunoaffinity chromatography as described by Dustin et al. (J. Immunol. 148, 2654-2663, 1992). ICAM-1 mouse Cκ fusion protein (ICAM-1) is produced using the baculovirus system as described by Weitz-Schmidt et al. (Anal. Biochem.238,184-190, 1996).
# Purified LFA-1 is diluted 1:20 in phosphate buffered saline (PBS) containing 2 mM MgCl2, pH 7.4 and coated onto microtitre plates (Nunc) at 37° C. for 3h. Plates are blocked with 1% heat-treated BSA in PBS for 2 hours at 37° C. followed by a washing step using PBS, 2 mM MgCl2, 1% fetal calf serum, pH 7.4 (assay buffer). Compounds dissolved at 10 mM in DMSO are diluted in assay buffer and added to the plates. Biotinylated recombinant ICAM-1 in assay buffer (6 μg/ml) is added and allowed to bind at 37° C. for one hour. After incubation, wells are washed with assay buffer. Streptavidin-peroxidase diluted 1:5000 in assay buffer is added and incubated for 45 min at 37° C. Plates are then washed with assay buffer and 2.2′-azino-bis(3-ethylbenzothiazoline-6 sulfonic acid) diammonium salt substrate solution is added to each well. The reaction is stopped after 20 min and bound ICAM-1 is determined by measuring the optical density at 405 nm in a microplate reader.
# In this assay, compounds of formula I inhibit adhesion of LFA-1 to ICAM-1 with an IC50≦30 μM, preferably 0.05 to 30 μM.
Compound,IC50 [1] [nM],ED50 [2] [µg/kg],inhibiting effect in ACD ([3]; p.o. at a dose of 2×3 mg/kg) [%],IC50 [4] [nM],inhibition of inflammatory swelling in ACD ([3]; 2x 1 mg/kg p.o.) [%]
CC[C@H](C)C(=O)O[C@H]1C[C@@H](C)C=C2C=C[C@H](C)[C@H](CC[C@@H]3C[C@H](CC(=O)NC)N(Cc4ccc(O)c(OC)c4)C(=O)O3)[C@H]21 [Ex. 2],200,0.1,41,50,–
"CC[C@H](C)C(=O)O[C@H]1C[C@@H](C)C=C2C=C[C@H](C)[C@H](CC[C@H]3C[C@@H](O)CC(=O)N3Cc3ccc4c(CO)c(OC)ccc4c3)[C@H]21 [Ex. 34, (S)2-Methyl-butyric acid (1S,3R,7S,8S,8aR)-8-{2-[(2S,4R)4-hydroxy-1-(5-hydroxymethyl-6-methoxy-naphthalen-2-ylmethyl)-6-oxo-piperidin-2-yl]-ethyl}-3,7-dimethyl-1,2,3,7,8,8a-hexahydro-naphthalen-1-yl ester]",–,–,–,190,41
"CC[C@H](C)C(=O)O[C@H]1C[C@@H](C)C[C@@H]2CC[C@H](C)[C@H](CC[C@@H](O)C[C@@H](O)CC(=O)NCc3ccc(OC)c(OC)c3)[C@H]21 [compound 28, (S)-2-Methyl-butyric acid (S)-(3S,4aS,7S,8S,8aS)-8-[(3R,5)6-(3,4-dimethoxy-benzylcarbamoyl)-3,5-dihydroxy-hexyl]-3,7-dimethyl-decahydro-naphthalen-1-yl ester]",–,–,–,790,–
